Values after ≈ are worked out from the molar mass of the structure shown.
Legend:
[1] = Solubility of compound in water; type: physicochemical; details: for solubility: water, read-out: S
Bos taurus = species on record: Bos taurus; test: Association constant of binding of compound with calf thymus DNA was determined by using equilibrium dialysis.; details: cattle
Ehrlich [2] = test: Compound was tested for the inhibition of RNA synthesis in Ehrlich cells by UV -A Irradiation relative to furoquinolinone; type: functional, Mus musculus
Ehrlich [3] = test: Compound was tested for the inhibition of DNA synthesis in Ehrlich cells by UV -A Irradiation; type: functional, Mus musculus
Ehrlich [4] = test: Compound was tested for the inhibition of DNA synthesis in Ehrlich cells by UV -A Irradiation relative to furoquinolinone; type: functional, Mus musculus
[5] = Partition Coefficient in n-octanol / water medium; type: physicochemical
Ehrlich [6] = test: Compound was tested for the inhibition of RNA synthesis in Ehrlich cells by UV -A Irradiation; type: functional, Mus musculus
[7] = Surviving fraction was evaluated at concentration 2 uM in T2 phage; type: functional
Ehrlich [8] = test: Compound was tested for the inhibition of RNA synthesis in Ehrlich cells by incubation in the dark.; type: functional; details: Mus musculus, read-out: ID50 (the source's name)
Ehrlich [9] = test: Compound was tested for the inhibition of DNA synthesis in Ehrlich cells by incubation in the dark relative to furoquinolinone; type: functional, Mus musculus
[10] = Surviving fraction was evaluated at concentration 4 uM in T2 phage; type: functional
Ehrlich [11] = test: Compound was tested for the inhibition of DNA synthesis in Ehrlich cells by incubation in the dark.; type: functional; details: Mus musculus, read-out: ID50 (the source's name)
Ehrlich [12] = test: Compound was tested for the inhibition of RNA synthesis in Ehrlich cells by incubation in the dark relative to furoquinolinone; type: functional, Mus musculus

Structure (SMILES) | solubility [1] [µg/mL] | K (Bos taurus) [M⁻¹] | Relative activity (Ehrlich [2]) | Du (Ehrlich [3]) | Relative activity (Ehrlich [4]) | Partition coefficient [5] | Du (Ehrlich [6]) | Surviving fraction [7] | IC50 (Ehrlich [8]) [µM] | Relative activity (Ehrlich [9]) | Surviving fraction [10] | IC50 (Ehrlich [11]) [µM] | Relative activity (Ehrlich [12]) | S ([1]; buffer) [mg/mL]
Cc1cc2c(o1)c(C)cc1c(C)cc(=O)oc12 | 1460 (≈ 6.4 mM) | 10100 | 16.83 | 0.0481 | 4.14 | 1897 | 0.0303 | 0.6 |  |  |  |  |  | 
Cc1oc2c(C)cc3c(C)cc(=O)[nH]c3c2c1C |  |  | 582 | 1.19 | 102.6 |  | 1.048 |  | 5.27 | 0.0926 | 0.7 | 25.2 | 0.256 | 
Cc1cc2c(o1)c(C)cc1c(C)cc(=O)n(C)c12 | 4700 (≈ 19.5 mM) | 11700 | 461 | 0.9 | 77.6 | 163.5 | 0.803 | 0.69 | 1.35 | 1 |  | 2.33 | 1 | 
COc1c2occc2cc2ccc(=O)oc12 [METHOXSALEN] |  | 736 | 1 | 0.0116 | 1 |  | 0.0018 | 0.8 |  |  |  |  |  | 23
